Reference: patent US6353022B1, “Compositions containing hydroxyeicosatetraenoic acid derivatives and methods of use in treating dry eye disorders” (Alcon Universal Ltd., priority 1999, dated 2002)

System: corneal injury induced by dry eye conditions
Assay: in vivo desiccation model of dry eye (methylene blue corneal staining, absorbance at 660 nm)
Parameters: species or system rabbit
Details: 15(S)-HETE 1 μM (0.000034% w/v), 50 μL topical O.D., 4-hour desiccation
Procedure: A composition of the present invention (Example 1, with the compound of formula (III) being 15(S)-HETE) was compared to an analogous composition without ethanol, an analogous composition without 15(S)-HETE, and analogous compositions with approximately one-half, one-tenth, and twice the amount of ethanol, respectively, in an in vivo desiccation model of dry eye.
Briefly, the assay was performed by first anesthetizing the animals with ketamine/xylazine/glycopyrrolate. The O.S. eye was lubricated with DuraTears® and remained taped shut throughout the experiment. The O.D. eye was then dosed with 50 μL of test composition (Example 1) or 50 μL of the same composition without ethanol and the eye taped shut for 10 minutes. The tape was then removed, the eyelids opened and a speculum was inserted into the eye. The eye was held open with the speculum for a period of 4 hours. During this time, the animals were monitored every 15 minutes and supplemental injections of ketamine/xylazine (at half the initial dose/injection) were administered as needed to maintain anesthesia. At the end of the 4-hour period, 2 sutures were placed in the upper eyelid and 1 suture was placed in the lower eyelid. A corneal/conjunctival cup was formed by using the sutures to lift the eyelids upward and the sutures taped to a stand. 1 mL methylene blue (1% solution in water) was added to the conjunctival cup and the cornea was stained with the solution for 5 minutes. The eye was then washed with 200 mL of a balanced salt solution. Corneal thickness was determined by non-invasive pachymetry. Three readings were taken for each animal. Corneal staining score was obtained by visualizing the cornea with a slit-lamp and determining the percentage of the cornea that was stained with methylene blue. A photograph was taken using the slit-lamp machine. The rabbit was then euthanized immediately by intravenous injection of Sleepaway® solution and the eye was excised. The cornea was isolated and an 8 mm punch of the central cornea collected. This corneal punch was placed in a small glass vial containing 2 mL acetone/saturated sodium sulfate (7:3, vol/vol). Absorbance of the extracted solution was measured at 660 nm with a spectrophotometer.
The naïve control animals were anesthetized with ketamine/xylazine/glycopyrrolate and the O.S. eye lubricated and taped shut. Sutures were immediately placed in the O.D. eyelids. The corneal cup was formed and the cornea was stained with methylene blue, washed with a balanced salt solution and collected, as described above. The data were converted to “percent protection” by subtracting from 1, the quotient of the test sample absorbances divided by the average of control sample absorbance, and multiplying by 100. The results are contained in Table 1 and illustrated in FIGS. 1 and 2: […]

## CCCCC[C@H](O)/C=C/C=C\C/C=C\C/C=C\CCCC(=O)O [15(S)-HETE, 5,8,11,13-Eicosatetraenoic acid, 15-hydroxy-, [15S-(5Z,8Z,11Z,13E)]-]
Ethanol 0.0 % (w/v)
  % Protection: 13%
Ethanol 0.00505 % (w/v)
  % Protection: 2%
Ethanol 0.0252 % (w/v), p < 0.05 versus control
  % Protection: 42%
Ethanol 0.0505 % (w/v) (composition of Example 1), p < 0.05 versus control
  % Protection: 60%
Ethanol 0.101 % (w/v)
  % Protection: 31%
